Source: patent US20080171740A1, “Chemical Compounds” (SMITHKLINE BEECHAM CORPORATION, priority 2004, published 2008)
Where two headings read alike, the source gives them in different places.

How the values were obtained:
Format in all cases: cell-based
[1] = system: HIV-1 IIIB strain, T-tropic (CXCR4 utilizing); assay: HOS HIV-1 infectivity assay
Description: (§1) Compounds were profiled against two HIV-1 viruses, the M-tropic (CCR5 utilizing) Ba-L strain and the T-tropic (CXCR4 utilizing) IIIB strain. Both viruses were propagated in human peripheral blood lymphocytes. Compounds were tested for there ability to block infection of the HOS cell line (expressing hCXCR4/hCCR5/hCD4/pHIV-LTR-luciferase) by either HIV-1 Ba-L or HIV-1 IIIB. Compound cytotoxicity was also examined in the absence of virus addition.
(§2) HOS cells (expressing hCXCR4/hCCR5/hCD4/pHIV-LTR-luciferase) were harvested and diluted in Dulbeccos modified Eagles media supplemented with 2% FCS and non-essential amino acid to a concentration of 60,000 cells/ml. The cells were plated into 96-well plates (100 ul per well) and the plates were placed in a tissue culture incubator (37° C.; 5% CO2/95% air) for a period of 24 h.
(§3) Subsequently, 50 ul of the desired drug solution (4 times the final concentration) was added to each well and the plates were returned to the tissue culture incubator (37° C.; 5% CO2/95% air) for 1 h. Following this incubation 50 ul of diluted virus was added to each well (approximately 2 million RLU per well of virus). The plates were returned to the tissue culture incubator (37° C.; 5% CO2/95% air) and were incubated for a further 96 h.
(§4) Following this incubation the endpoint for the virally infected cultures was quantified following addition of Steady-Glo Luciferase assay system reagent (Promega, Madison, Wis.). Cell viability or non-infected cultures was measured using a CellTiter-Glo luminescent cell viability assay system (Promega, Madison, Wis.). All luminescent readouts are performed on a Topcount luminescence detector (Packard, Meridien, Conn.).

[2] = molecular target: T1, CXCR4 receptor (Homo sapiens, UniProt P61073); assay: Functional FLIPR assay (block of SDF-1 alpha induced [Ca2+]i change); settings: HEK-293 cells with human CXCR4 BacMam and Gqi5 BacMam; antagonism of SDF-1 alpha; read-out: Functional assay (pIC50) (converted)
T1 construct: expressed in transfected cells; host or cells: HEK-293 cells (stably expressing human macrophage scavenging receptor) transduced with human CXCR4 BacMam and Gqi5 BacMam
T1 sequence (P61073 whole entry): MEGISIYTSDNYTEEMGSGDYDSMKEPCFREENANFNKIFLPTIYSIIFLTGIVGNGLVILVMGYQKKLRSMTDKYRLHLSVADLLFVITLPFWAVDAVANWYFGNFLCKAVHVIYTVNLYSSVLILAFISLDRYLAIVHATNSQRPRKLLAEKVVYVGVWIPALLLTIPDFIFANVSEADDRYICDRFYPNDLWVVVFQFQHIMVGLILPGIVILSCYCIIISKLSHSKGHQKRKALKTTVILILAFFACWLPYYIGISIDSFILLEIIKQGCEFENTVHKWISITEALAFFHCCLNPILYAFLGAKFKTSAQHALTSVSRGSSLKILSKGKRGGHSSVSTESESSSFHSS
Description: Human embryonic kidney (HEK-293) cells were maintained and harvested as described above. Cells were plated in 96-well, black clear bottom, poly-lysine coated plates at a concentration of 40,000 cells per well in a final volume of 100 ul containing human CXCR4 BacMam (MOI=25) and Gqi5 BacMam (MOI=12.5). The cells were incubated at 37° C., 5% CO2, 95% humidity for 24 h to allow for protein expression.
After the required incubation time the cells were washed once with 50 ul of fresh serum-free DMEM/F12 media containing probenicid. 50 ul of dye solution was then added to the cells (Calcium Plus Assay Kit Dye; Molecular Devices) was dissolved in 200 ml of the above probenicid/BSA containing media and incubated for 1 h. Cell plates were transferred to a Fluorometric Imaging Plate Reader (FLIPR). Upon addition the effect of the compounds on the change in [Ca^2+]i was examined to determine if the compounds were agonists or antagonists (ability to block SDF-1 alpha activity) at the CXCR4 receptor. IC50 values are determined and pKb values are calculated using the Leff and Dougall equation: KB=IC50/((2+([agonist]/EC50̂b)̂1/b -1) Where IC50 is that defined by the antagonist concentration-response curve [agonist] is the EC80 concentration of agonist used EC50 is that defined by the agonist concentration-response curve b is the slope of the agonist concentration-response curve.

[3] = system: HIV-1 gp160 (HXB2 strain) mediated fusion with HOS (hCXCR4/hCCR5/hCD4/pHIV-LTR-luciferase) cells; assay: Cell/cell fusion assay (HEK-293 expressing HIV-1 tat, rev, gp160 with HOS hCXCR4/hCCR5/hCD4/pHIV-LTR-luciferase cells); settings: Homo sapiens, HEK293; luciferase readout after 24 h; read-out: Fusion assay (pIC50) (converted)
Description: The complete coding sequences of HIV-1 tat (GenBank Accession No. X07861) and rev (GenBank Accession No. M34378) were cloned into pcDNA3.1 expression vectors containing G418 and hygromycin resistance genes, respectively. The complete coding sequence of the HIV-1 (HXB2 strain) gp160 envelope gene (nucleotide bases 6225-8795 of GenBank Accession No. K03455) was cloned into plasmid pCRII-TOPO. The three HIV genes were additionally inserted into the baculovirus shuttle vector, pFastBacMam1, under the transcriptional control of the CMV promoter. A construction of the pHIV-I LTR containing mutated NFkB sequences linked to the luciferase reporter gene was prepared by digesting pcDNA3.1, containing the G418 resistance gene, with Nru I and Bam HI to remove the CMV promoter. LTR-luc was then cloned into the Nru I/Bam HI sites of the plasmid vector. Plasmid preparations were performed after the plasmids were amplified in Escherichia coli strain DH5-alpha. The fidelity of the inserted sequences was confirmed by double-strand nucleotide sequencing using an ABI Prism Model 377 automated sequencer.
Recombinant BacMam baculoviruses were constructed from pFastBacMam shuttle plasmids by using the bacterial cell-based Bac-to-Bac system. Viruses were propagated in Sf9 (Spodoptera frugiperda) cells cultured in Hink's TNM-FH Insect media supplemented with 10% (v/v) fetal bovine serum and 0.1% (v/v) pluronic F-68 according to established protocols.
Human osteosarcoma (HOS) cells that naturally express human CXCR4 were transfected with human CCR5, human CD4 and the pHIV-LTR-luciferase plasmid using FuGENE 6 transfection reagent. Single cells were isolated and grown under selection condition in order to generate a stable HOS (hCXCR4/hCCR5/hCD4/pHIV-LTR-luciferase) clonal cell line. The cells were maintained in Dulbeccos modified Eagles media supplemented with 10% fetal calf serum (FCS), G418 (400 ug/ml), puromycin (1 ug/ml), mycophenolic acid (40 ug/ml), xanthine (250 ug/ml) and hypoxanthine (13.5 ug/ml) to maintain a selection pressure for cells expressing the LTR-luciferase, hCCR5 and hCD4, respectively. Human embryonic kidney (HEK-293) cells stably transfected to express the human macrophage scavenging receptor (Class A, type 1; GenBank Accession No. D90187), were maintained in DMEM/F-12 media (1:1) supplemented with 10% FCS and 1.5 ug/ml puromycin. The expression of this receptor by the HEK-293 cells enhances their ability to stick to tissue culture treated plasticware.
HEK-293 cells were harvested using enzyme-free cell dissociation buffer. The cells were resuspended in DMEM/F-12 media supplemented with 10% FCS and 1.5 ug/ml and counted. Tranductions were performed by direct addition of BacMam baculovirus containing insect cell media to cells. The cells were simultaneously transduced with BacMam baculovirus expressing HIV-1 tat, HIV-1 rev and HIV-1 gp160 (from the HXB2 HIV strain). Routinely an MOI of 10 of each virus was added to the media containing the cells. 2 mM butyric acid was also added to the cells at this stage to increase protein expression in transduced cells. The cells were subsequently mixed and seeded into a flask at 30 million cells per T225. The cells were incubated at 37° C., 5% CO2, 95% humidity for 24 h to allow for protein expression.
HEK and HOS cells were harvested in DMEM/F-12 media containing 2% FCS and DMEM media containing 2% FCS, respectively, with no selection agents added. Compounds were plated as 1 ul spots in 100% DMSO on a 96-well CulturPlate plates. HOS cells (50 ul) were added first to the wells, followed immediately by the HEK cells (50 ul). The final concentration of each cell type was 20,000 cells per well. Following these additions, the cells were returned to a tissue culture incubator (37° C.; 5% CO2/95% air) for an additional 24 h.
Following the 24 h incubation, total cellular luciferase activity was measured using the LucLite Plus assay kit (Packard, Meridien, Conn.). […]

[4] = Compound cytotoxicity in the absence of virus (CellTiter-Glo); settings: human; non-infected HOS cultures, cell viability; read-out: Cytotox (pIC50) (converted)
Description: as §1, §2, §3, §4

[5] = Human immunodeficiency virus 1, IIIB, HOS HIV anti-infectivity assay, strain not named in Table 2, read-out: Activity Level
[6] = Human immunodeficiency virus 1, HOS cells, HIV-1 IIIB, 96 h, luciferase, read-out: HOS (3B)

Compound | IC50 [1, 5] [nM] | also measured
NCCN(Cc1cn2ccccc2n1)C1CCCc2cccnc21 (centres unmarked) [Example 42, N-(Imidazo[1,2-a]pyridin-2-ylmethyl)-N-(5,6,7,8-tetrahydroquinolin-8-yl)ethane-1,2-diamine] | 500 to 10000 | –
NCCCCN(Cc1cn2c(N)cccc2n1)C1CCCc2cccnc21 (centres unmarked) [Example 26, N-[(5-Aminoimidazo[1,2-a]pyridin-2-yl)methyl]-N-(5,6,7,8-tetrahydro-8-quinolinyl)-1,4-butanediamine] | < 100 | IC50 [2]: 11.5 nM; IC50 [3]: 39.8 nM; IC50 at 96 h [4]: > 100000 nM; IC50 [1, 6]: 14 nM
NCCCCN(Cc1cn2c(N3CCOCC3)cccc2n1)C1CCCc2cccnc21 (centres unmarked) [Example 23, N-{[5-(4-Morpholinyl)imidazo[1,2-a]pyridin-2-yl]methyl}-N-(5,6,7,8-tetrahydro-8-quinolinyl)-1,4-butanediamine] | < 100 | IC50 [2]: 158 nM; IC50 [3]: 324 nM; IC50 at 96 h [4]: > 100000 nM; IC50 [1, 6]: 77 nM
CN1CCN(c2cccc3nc(CN(Cc4cccnc4)[C@H]4CCCc5cccnc54)cn23)CC1 [Example 31, (8S)-N-{[5-(4-Methyl-1-piperazinyl)imidazo[1,2-a]pyridin-2-yl]methyl}-N-(3-pyridinylmethyl)-5,6,7,8-tetrahydro-8-quinolinamine] | < 100 | –
CN1CCN(c2cccc3nc(CN(Cc4ccccc4N(C)C)[C@H]4CCCc5cccnc54)cn23)CC1 [Example 29, (8S)-N-{[2-(Dimethylamino)phenyl]methyl}-N-{[5-(4-methyl-1-piperazinyl)imidazo[1,2-a]pyridin-2-yl]methyl}-5,6,7,8-tetrahydro-8-quinolinamine] | < 100 | –
NC1CCC(N(Cc2cn3ccccc3n2)C2CCCc3cccnc32)CC1 (centres unmarked) [Example 37, N-(Imidazo[1,2-a]pyridin-2-ylmethyl)-N-(5,6,7,8-tetrahydro-8-quinolinyl)-1,4-cyclohexanediamine] | 100 to 500 | –
CN1CCN(c2cccc3nc(CN(Cc4ccncc4)[C@H]4CCCc5cccnc54)cn23)CC1 [Example 32, (8S)-N-{[5-(4-Methyl-1-piperazinyl)imidazo[1,2-a]pyridin-2-yl]methyl}-N-(4-pyridinylmethyl)-5,6,7,8-tetrahydro-8-quinolinamine] | < 100 | –
NCCCCN(Cc1nc2ccccn2c1Cl)C1CCCc2cccnc21 (centres unmarked) [Example 45, N-[(3-Chloroimidazo[1,2-a]pyridin-2-yl)methyl]-N-(5,6,7,8-tetrahydro-8-quinolinyl)-1,4-butanediamine] | < 100 | –
CN1CCN(c2cccc3nc(CN(Cc4ccccn4)[C@H]4CCCc5cccnc54)c(CO)n23)CC1 [Example 34, [5-(4-Methyl-1-piperazinyl)-2-({(2-pyridinylmethyl)[(8S)-5,6,7,8-tetrahydro-8-quinolinyl]amino}methyl)imidazo[1,2-a]pyridin-3-yl]methanol] | < 100 | –
NCCCCCN(Cc1cn2ccccc2n1)C1CCCc2cccnc21 (centres unmarked) [Example 43, N-(Imidazo[1,2-a]pyridin-2-ylmethyl)-N-(5,6,7,8-tetrahydro-8-quinolinyl)-1,5-pentanediamine] | 100 to 500 | –
CN1CCN(c2cccc3nc(CN(Cc4ccccn4)[C@H]4CCCc5cccnc54)cn23)CC1 [Example 30, (8S)-N-{[5-(4-Methyl-1-piperazinyl)imidazo[1,2-a]pyridin-2-yl]methyl}-N-(2-pyridinylmethyl)-5,6,7,8-tetrahydro-8-quinolinamine] | 100 to 500 | –
CN1CCN(c2cccc3nc(CN(Cc4ccncc4)[C@H]4CCCc5cccnc54)c(CO)n23)CC1 [Example 36, [5-(4-Methyl-1-piperazinyl)-2-({(4-pyridinylmethyl)[(8S)-5,6,7,8-tetrahydro-8-quinolinyl]amino}methyl)imidazo[1,2-a]pyridin-3-yl]methanol] | < 100 | –
CN1CCN(c2cccc3nc(CN(Cc4cccnc4)[C@H]4CCCc5cccnc54)c(CO)n23)CC1 [Example 35, [5-(4-Methyl-1-piperazinyl)-2-({(3-pyridinylmethyl)[(8S)-5,6,7,8-tetrahydro-8-quinolinyl]amino}methyl)imidazo[1,2-a]pyridin-3-yl]methanol] | < 100 | –
NCCCN(Cc1cn2ccccc2n1)C1CCCc2cccnc21 (centres unmarked) [Example 44, N-(Imidazo[1,2-a]pyridin-2-ylmethyl)-N-(5,6,7,8-tetrahydro-8-quinolinyl)-1,3-propanediamine] | 500 to 10000 | –
NCCCCN(Cc1nc2ccccn2c1Br)C1CCCc2cccnc21 (centres unmarked) [Example 46, N-[(3-Bromoimidazo[1,2-a]pyridin-2-yl)methyl]-N-(5,6,7,8-tetrahydro-8-quinolinyl)-1,4-butanediamine] | < 100 | –
